The values below come from patent publication US6562818B1, “Irreversible inhibitors of tyrosine kinases” (Warner-Lambert Company, priority 1997, dated 2003).

Data set [1] concerns the target T1, EGFR (Homo sapiens, UniProt P00533). The conditions noted are these: read-out: EGFR (autophosphorlyation) IC50; A431 cells, 15 minutes compound, stimulated with 100 ng/mL EGF. As for the experimental part: (§1) Extracts were made by lysing the monolayers in 0.2 mL of boiling Laemlli buffer (2% sodium dodecyl sulfate, 5% beta-mercaptoethanol, 10% glycerol and 50 mM tris[hydroxymethyl]aminomethane (Tris), pH 6.8), and the lysates were heated to 100° C. for 5 minutes. Proteins in the lysate were separated by polyacrylamide gel electrophoresis and electrophoretically transferred to nitrocellulose. The membrane was washed once in 10 mM Tris, pH 7.2, 150 mM NaCl, 0.01% Azide (TNA), and blocked overnight in TNA containing 5% bovine serum albumin and 1% ovalbumin. The membrane was blotted for 2 hours with antiphosphotyrosine antibody (UBI, 1 μg/mL in blocking buffer) and then washed twice in TNA, once in TNA containing 0.05% Tween-20 detergent and 0.05% nonidet P-40 detergent and twice in TNA. […] Band intensities were determined with a Molecular Dynamics laser densitometer.
Duplicate sets of cells were treated with a range of concentrations of the designated compound to be tested as an inhibitor for 15 minutes. The cells were then stimulated with 100 ng/mL of EGF for 5 minutes and extracts made as described under the Western Blotting Procedure.

The target in data set [2] is T1, EGFR. The following applies: A431 cells, 2 μM compound. As for the experimental part:
as §1

Data set [3] addresses Human EGF receptor tyrosine kinase (Homo sapiens, UniProt P00533). The conditions noted are these: read-out: EGFR (isolated enzyme) IC50; isolated enzyme from A431 cells, 10 μM ATP.
Procedure: Human EGF receptor tyrosine kinase was isolated from A431 human epidermoid carcinoma cells by the following method. Cells were grown in roller bottles in dMEM/F12 media (Gibco/BRL) containing 10% fetal calf serum. Approximately 10^9 cells were lysed in 2 volumes of buffer containing 20 mM N-[2-hydroxyethyl]piperazine-N′-[2-ethane sulfonic acid](Hepes), pH 7.4, 5 mM ethylene glycol-bis(β-aminoethyl ether) N,N,N′,N′-tetraacetic acid (EGTA), 1% Triton X-100, 10% glycerol, 0.1 mM sodium orthovanadate, 5 mM sodium fluoride, 4 mM pyrophosphate, 4 mM benzamide, 1 mM dithiothreitol (DTT), 80 μg/mL aprotinin, 40 μg/mL leupeptin, and 1 mM phenylmethyl sulfonyl fluoride (PMSF). After centrifugation at 25,000×g for 10 minutes, the supernatant was applied to a fast Q sepharose column (Pharmacia Biotech., Inc., Piscataway, N.J.) and eluted with a linear gradient from 0.1 M NaCl to 0.4 M NaCl in 50 mM Hepes, 10% glycerol, pH 7.4. Enzyme active fractions were pooled, divided into aliquots, and stored at −100° C.
Enzyme assays for IC50 determinations were performed in 96-well filter plates (Millipore MADVN6550, Millipore, Bedford, Mass). […] The wells are then washed 5 times with 0.2 mL of 10% TCA and ^32P incorporation determined with a Wallac beta plate counter (Wallac, Inc., Gaithersburg, Pa.).
For a further data set, the target named is ErbB-2 (Homo sapiens, UniProt P04626). Nature of the data set: ErbB-2 autophosphorylation assay. In kind it is cell-based. The conditions noted are these: read-out: ErbB-2 (autophosphorlyation) IC50.
ErbB-2, sequence (P04626 23-1255, species assumed): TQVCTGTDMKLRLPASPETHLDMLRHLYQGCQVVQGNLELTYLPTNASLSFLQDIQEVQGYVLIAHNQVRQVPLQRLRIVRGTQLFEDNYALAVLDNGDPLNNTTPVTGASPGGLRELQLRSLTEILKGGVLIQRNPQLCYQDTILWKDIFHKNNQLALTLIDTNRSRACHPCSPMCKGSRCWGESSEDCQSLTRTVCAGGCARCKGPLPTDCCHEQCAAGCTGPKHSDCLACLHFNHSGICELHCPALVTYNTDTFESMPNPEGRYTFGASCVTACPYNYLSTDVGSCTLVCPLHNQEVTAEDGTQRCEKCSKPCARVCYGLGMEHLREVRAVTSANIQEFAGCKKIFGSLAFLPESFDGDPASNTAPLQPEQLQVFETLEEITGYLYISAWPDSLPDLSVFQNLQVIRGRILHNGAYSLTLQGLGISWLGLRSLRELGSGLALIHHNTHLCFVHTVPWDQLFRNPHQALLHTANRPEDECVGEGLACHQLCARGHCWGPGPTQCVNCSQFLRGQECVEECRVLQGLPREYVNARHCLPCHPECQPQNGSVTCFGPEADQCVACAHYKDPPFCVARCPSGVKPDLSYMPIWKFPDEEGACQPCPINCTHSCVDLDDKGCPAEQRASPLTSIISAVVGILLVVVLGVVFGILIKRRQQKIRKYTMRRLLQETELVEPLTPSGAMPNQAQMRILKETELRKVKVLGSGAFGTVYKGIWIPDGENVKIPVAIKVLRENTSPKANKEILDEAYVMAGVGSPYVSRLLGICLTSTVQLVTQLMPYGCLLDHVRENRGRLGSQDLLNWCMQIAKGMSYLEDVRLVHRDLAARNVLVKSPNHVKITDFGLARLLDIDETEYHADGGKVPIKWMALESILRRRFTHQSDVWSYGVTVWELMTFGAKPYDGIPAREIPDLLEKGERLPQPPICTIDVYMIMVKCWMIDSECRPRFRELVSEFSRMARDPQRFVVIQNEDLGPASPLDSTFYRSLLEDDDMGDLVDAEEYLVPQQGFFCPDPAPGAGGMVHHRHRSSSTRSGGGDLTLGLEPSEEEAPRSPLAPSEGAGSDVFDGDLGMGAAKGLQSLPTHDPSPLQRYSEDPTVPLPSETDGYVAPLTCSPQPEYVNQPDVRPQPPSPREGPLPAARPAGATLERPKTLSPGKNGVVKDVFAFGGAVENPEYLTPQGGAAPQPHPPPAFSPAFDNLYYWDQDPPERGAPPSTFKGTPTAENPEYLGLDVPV

The term IC50 denotes the concentration needed to halve the response being measured. The term melting point denotes the temperature, or range, at which the solid turns liquid.

The structures appear in SMILES notation. Counter-ions that a name gives are not always drawn.

T1 sequence (P00533 25-1210 limits assumed): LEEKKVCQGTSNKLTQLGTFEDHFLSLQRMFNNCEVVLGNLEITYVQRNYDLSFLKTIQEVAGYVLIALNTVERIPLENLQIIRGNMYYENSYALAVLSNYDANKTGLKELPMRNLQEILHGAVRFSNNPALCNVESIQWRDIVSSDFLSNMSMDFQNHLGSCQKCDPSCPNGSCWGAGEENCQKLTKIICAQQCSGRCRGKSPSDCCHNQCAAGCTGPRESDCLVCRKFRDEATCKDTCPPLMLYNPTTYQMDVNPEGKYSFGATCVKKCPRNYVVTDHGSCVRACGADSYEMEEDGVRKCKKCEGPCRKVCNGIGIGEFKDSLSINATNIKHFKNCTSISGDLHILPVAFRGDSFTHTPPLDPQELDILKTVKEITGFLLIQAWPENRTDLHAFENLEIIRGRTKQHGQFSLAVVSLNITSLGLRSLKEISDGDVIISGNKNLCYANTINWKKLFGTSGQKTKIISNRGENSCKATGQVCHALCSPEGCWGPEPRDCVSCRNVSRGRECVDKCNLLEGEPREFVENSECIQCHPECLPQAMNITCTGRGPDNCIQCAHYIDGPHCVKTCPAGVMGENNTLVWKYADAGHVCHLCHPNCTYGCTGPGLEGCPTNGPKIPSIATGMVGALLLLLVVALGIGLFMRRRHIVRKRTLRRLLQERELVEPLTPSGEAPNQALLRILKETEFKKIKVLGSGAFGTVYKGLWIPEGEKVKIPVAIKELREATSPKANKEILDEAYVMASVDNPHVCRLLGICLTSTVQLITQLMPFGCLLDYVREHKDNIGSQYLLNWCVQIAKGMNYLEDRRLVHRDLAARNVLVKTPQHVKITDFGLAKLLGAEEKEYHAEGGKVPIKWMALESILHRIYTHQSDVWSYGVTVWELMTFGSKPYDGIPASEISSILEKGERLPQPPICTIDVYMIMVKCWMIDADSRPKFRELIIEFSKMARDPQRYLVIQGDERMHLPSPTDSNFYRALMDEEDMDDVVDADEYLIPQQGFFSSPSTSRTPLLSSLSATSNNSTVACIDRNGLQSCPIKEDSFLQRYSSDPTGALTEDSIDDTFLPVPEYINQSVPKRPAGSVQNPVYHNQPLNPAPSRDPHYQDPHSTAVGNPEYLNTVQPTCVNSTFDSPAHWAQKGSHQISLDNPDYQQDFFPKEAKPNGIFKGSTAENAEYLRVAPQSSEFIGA
Human EGF receptor tyrosine kinase, sequence (P00533 25-1210 limits assumed): as above

Regarding `C=CC(=O)Nc1ccc2ncnc(Nc3ccc(Oc4ccccc4)cc3)c2c1` [Example 1, N-(4-[4-Phenoxyanilino]quinazolin-6-yl)acrylamide], the 50% inhibitory concentration (IC50) at EGFR [1] is 4.8 nM; in data set [3], 5.8 nM. Besides, the “% EGFR enzyme activity after 8 hours washoff” value on EGFR [2] is given as 0%.
For `C=CC(=O)Nc1ccc2ncnc(Nc3ccc(OCc4ccccc4)cc3)c2c1` [Example 2, N-(4-[4-Benzyloxyanilino]quinazolin-6-yl)acrylamide], the half-inhibitory concentration (IC50) on EGFR [1] was found to be 4.2 nM; on ErbB-2 it was 7.6 nM; in data set [3] it was 3.6 nM. In addition, the “% EGFR enzyme activity after 8 hours washoff” value at EGFR [2] is 0%.
In turn, `C=CC(=O)Nc1ccc2ncnc(Nc3ccc(OCc4ccccc4)cc3)c2c1` (as salt: salt) [Example 2, N-(4-[4-Benzyloxyanilino]quinazolin-6-yl)acrylamide] yielded a melting point of 227 to 229 °C.
Take `C=CC(=O)Nc1ccc2ncnc(Nc3ccc(Oc4ccccc4)cc3)c2c1` (as salt: salt) [Example 1, N-(4-[4-Phenoxyanilino]quinazolin-6-yl)acrylamide]: the melting point lay in the range of 185 to 191 °C.
